Columns and labels:
[1] = tested on: SW403 cells; test: cells; conditions: Homo sapiens, SW-403, read-out: EC50, SW403 cell viability
Excerpt: Combinatory index calculation of cell viability data analyzed with CompuSyn Software. The resulting combination index (CI) offers quantitative definition for additive effect (CI=1), synergism (CI<1), and antagonism (CI>1) in drug combinations. Results are expressed as mean±s.e.m. (n=8-16) of three independent experiments.
Finally, the CellTiter-Glo® Luminescent Cell Viability Assay can be used to determine the number of viable cells in culture based on quantitation of the ATP present, which signals the presence of metabolically active cells. Briefly, a volume of CellTiter-Glo® Reagent equal to the volume of cell culture medium present in each well is added to 96-well plates after drug treatment. Contents are mixed for 2 minutes on an orbital shaker to induce cell lysis and plate was incubated at room temperature for 10 minutes to stabilize signal before reading luminescence.
The compounds were added to the cultures once every 24 hours over a period of 72 hours and the effects of the combined treatments were evaluated using CompuSyn Software.

[2] = target: human (hAC) acid ceramidase (Homo sapiens (Human), UniProt Q13510); test: fluorescent-based in vitro assay on human acid ceramidase; type: biochemical; conditions: hAC-enriched lysosomal lysate from HEK293 cells; fluorogenic probe 5 μM; pH 4.5
Excerpt: To evaluate the potency of the compounds towards acid ceramidase, a fluorescence-based in vitro assay previously described in literature (Bedia C et al., ChemBioChem, 2007, 8, 642-648) was implemented and optimized. This assay is based on a “fluorogenic probe” containing a coumarin group and a sphingoid base moiety (see figure below), which is not fluorescent in itself, but upon enzymatic cleavage by acid ceramidase followed by a chemical transformation liberates the fluorescent molecule umbelliferone (7-hydroxychromen-2-one). By quantifying the generation of umbelliferone using a fluorescence plate-reader, the level of enzymatic activity can be measured, whereby IC50 values of compounds that inhibit this activity can be generated.
Lysosomal lysate, enriched with acid ceramidase, was prepared from a cell line stably expressing human acid ceramidase. In the assay, the fluorogenic probe (or substrate) serves as a ceramide-analogue, which is recognized and hydrolyzed at the amide bond by acid ceramidase from the enriched lysate to yield the fatty acid and coumarinic aminodiol. By treating the solution with sodium periodate (NaIO4), the coumarinic aminodiol is subsequently oxidized into an aldehyde intermediate, which undergoes a β-elimination reaction to release the strongly fluorescent umbelliferone.
A lysosomal human acid ceramidase protein preparation was obtained from HEK293 cells stably expressing acid ceramidase suspended in 20 mM Tris HCl (pH 7.5) with 0.32 M sucrose. The cell solution was sonicated and centrifuged at 800×g for 15 min at 4° C. Supernatants were then centrifuged at 12,000×g for 30 min at 4° C. Pellets were re-suspended in PBS pH 7.4 and subjected to two freeze-thaw cycles at −80° C. The suspension was finally centrifuged at 105,000×g for 1 hour at 4° C. and protein concentration was measured in the supernatant with bicinchinonic-acid based protein assay. This human acid ceramidase-enriched preparation allowed us to further optimize the enzymatic assay and to use smaller amounts of lysate (2 μg/well) and substrate (5 μM).
The assay was performed in Optiplate 96-wells black plates, with each reaction well containing a mixture of 25 mM sodium acetate buffer pH 4.5 and a fixed amount of protein (2 μg) in a volume of 85 μL. After 30 mins of pre-incubation with test compounds (diluted 20× from DMSO stock solutions at different concentrations), the fluorogenic probe was added (diluted 20× from EtOH stock solution, final concentration 5 μM). After incubation for 3 hours at 37° C., the reactions were stopped with 50 μL of methanol and 100 μL of a 2.5 mg/mL NalO4 fresh solution in 100 mM Glycine/NaOH pH 10.6. The plate was incubated at 37° C. for 2 hours in the dark and fluorescence intensities were measured at excitation/emission wavelengths of 360/446 nm. Negative control samples consisted of the same incubation mixture in the absence of protein extracts. The IC50 values or percent of inhibition, at the indicated concentration, of selected compounds described in the invention are reported in Table 2.

Chain of human (hAC) acid ceramidase (Q13510 22-142): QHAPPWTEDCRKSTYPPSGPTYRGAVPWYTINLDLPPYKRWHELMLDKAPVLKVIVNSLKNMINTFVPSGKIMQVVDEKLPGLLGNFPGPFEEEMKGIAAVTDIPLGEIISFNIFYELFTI
Chain of human (hAC) acid ceramidase (Q13510 143-395): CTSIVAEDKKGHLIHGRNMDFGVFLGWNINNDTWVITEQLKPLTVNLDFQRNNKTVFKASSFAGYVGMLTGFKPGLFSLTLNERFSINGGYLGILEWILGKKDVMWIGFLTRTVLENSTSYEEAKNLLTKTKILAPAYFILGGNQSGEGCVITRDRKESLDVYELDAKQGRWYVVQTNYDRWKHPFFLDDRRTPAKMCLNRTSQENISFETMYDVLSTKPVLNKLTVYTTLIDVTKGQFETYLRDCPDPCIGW

| SMILES | EC50 [1] [µM] | IC50 [2] [nM] |
| --- | --- | --- |
| O=c1[nH]cc(F)c(=O)[nH]1 [Example 5-FU, 5-fluorouracil] | 0.736 | – |
| COc1ccc(-c2ccc3oc(=O)n(C(=O)NCCCCc4ccccc4)c3c2)cc1 [Example 21, 5-(4-Methoxyphenyl)-2-oxo-N-(4-phenylbutyl)-1,3-benzoxazole-3-carboxamide] | – | 68 |
| O=C(NCCCCc1ccc(F)cc1)n1c(=O)oc2ccccc21 [Example 46, N-[4-(4-Fluorophenyl)butyl]-2-oxo-1,3-benzoxazole-3-carboxamide] | – | 75 |
| O=C(NCCCCc1ccccc1)n1c(=O)oc2ccccc21 [Example 1, 2-Oxo-N-(4-phenylbutyl)-1,3-benzoxazole-3-carboxamide] | – | 64 ± 7 |
| CCCCCCCNC(=O)n1c(=O)oc2ccccc21 [Example 59, N-Heptyl-2-oxo-1,3-benzoxazole-3-carboxamide] | – | 50 ± 7 |
| Cc1ccc2oc(=O)n(C(=O)NCCCCc3ccccc3)c2c1 [Example 8, 5-Methyl-2-oxo-N-(4-phenylbutyl)-1,3-benzoxazole-3-carboxamide] | – | 117 ± 26 |
| O=C(NCCCCc1ccccc1)n1c(=O)oc2ccc(Cl)cc21 [Example 4, 5-Chloro-2-oxo-N-(4-phenylbutyl)-1,3-benzoxazole-3-carboxamide] | – | 9 ± 7 |
| O=C(NCCCCC1CCCCC1)n1c(=O)oc2ccccc21 [Example 39, N-(4-Cyclohexylbutyl)-2-oxo-1,3-benzoxazole-3-carboxamide] | – | 62 ± 44 |
| COc1ccc(-c2ccc3c(c2)oc(=O)n3C(=O)NCCCCc2ccccc2)cc1 [Example 24, 6-(4-Methoxyphenyl)-2-oxo-N-(4-phenylbutyl)-1,3-benzoxazole-3-carboxamide] | – | 67 ± 5 |
| O=C(NCCCCc1ccccc1)n1c(=O)oc2ccc([N+](=O)[O-])cc21 [Example 11, 5-Nitro-2-oxo-N-(4-phenylbutyl)-1,3-benzoxazole-3-carboxamide] | – | 3 ± 2 |
| O=C(NCCCCc1ccccc1)n1c(=O)oc2cc(-c3ccccc3)ccc21 [Example 23, 2-Oxo-6-phenyl-N-(4-phenylbutyl)-1,3-benzoxazole-3-carboxamide] | – | 84 ± 35 |
| O=C(NCCCc1ccccc1)n1c(=O)oc2ccccc21 [Example 43, 2-Oxo-N-(3-phenylpropyl)-1,3-benzoxazole-3-carboxamide] | – | 55 ± 6 |
| O=C(NCCCCc1ccccc1)n1c(=O)oc2ccc(C(F)(F)F)cc21 [Example 13, 2-Oxo-N-(4-phenylbutyl)-5-(trifluoromethyl)-1,3-benzoxazole-3-carboxamide] | – | 11 ± 5 |
| CCC(=O)c1ccc2c(c1)oc(=O)n2C(=O)NCCCCc1ccccc1 [Example 36, 2-Oxo-N-(4-phenylbutyl)-6-propanoyl-1,3-benzoxazole-3-carboxamide] | – | 16 ± 14 |
| O=C(NCCCCc1ccccc1)n1c(=O)oc2cc(O)ccc21 [Example 35, 6-Hydroxy-2-oxo-N-(4-phenylbutyl)-1,3-benzoxazole-3-carboxamide] | – | 152 ± 87 |
| Cc1cccc2c1oc(=O)n2C(=O)NCCCCc1ccccc1 [Example 18, 7-Methyl-2-oxo-N-(4-phenylbutyl)-1,3-benzoxazole-3-carboxamide] | – | 23 ± 5 |
| O=C(NCCCCc1ccccc1)n1c(=O)oc2cc([N+](=O)[O-])ccc21 [Example 12, 6-Nitro-2-oxo-N-(4-phenylbutyl)-1,3-benzoxazole-3-carboxamide] | – | 3 ± 1 |
| CCCc1ccc(CNC(=O)n2c(=O)oc3ccccc32)cc1 [Example 41, 2-Oxo-N-[(4-propylphenyl)methyl]-1,3-benzoxazole-3-carboxamide] | – | 19 ± 2 |
| O=C(c1ccc(Cl)cc1)c1ccc2c(c1)oc(=O)n2C(=O)NCCCCc1ccccc1 [Example 38, 6-(4-Chlorobenzoyl)-2-oxo-N-(4-phenylbutyl)-1,3-benzoxazole-3-carboxamide] | – | 14 ± 4 |
| O=C(NCCCc1cccc(F)c1)n1c(=O)oc2ccccc21 [Example 50, N-[3-(3-Fluorophenyl)propyl]-2-oxo-1,3-benzoxazole-3-carboxamide] | – | 49 |
| O=C(NCCCCc1ccccc1)n1c(=O)oc2c(Br)cccc21 [Example 19, 7-Bromo-2-oxo-N-(4-phenylbutyl)-1,3-benzoxazole-3-carboxamide] | – | 18 ± 11 |
| O=C(NCCCCc1ccccc1)n1c(=O)oc2ccc(-c3ccc(F)cc3)cc21 [Example 22, 5-(4-Fluorophenyl)-2-oxo-N-(4-phenylbutyl)-1,3-benzoxazole-3-carboxamide] | – | 56 ± 14 |
| O=C(NCCCCc1ccccc1)n1c(=O)oc2cc(Cl)ccc21 [Example 5, 6-Chloro-2-oxo-N-(4-phenylbutyl)-1,3-benzoxazole-3-carboxamide] | – | 33 ± 4 |
| O=C(NCCCCc1ccccc1)n1c(=O)oc2ccc(F)cc21 [Example 2, 5-Fluoro-2-oxo-N-(4-phenylbutyl)-1,3-benzoxazole-3-carboxamide] | – | 56 ± 12 |

— patent publication US10226452B2, “Benzoxazolone derivatives as acid ceramidase inhibitors, and their use as medicaments” (FONDAZIONE ISTITUTO ITALIANO DI TECNOLOGIA, priority 2014, dated 2019)
